This is an account of results in patent publication US9096597B2 (priority 2007, dated 2015).

pEC50: −log10 of the molar value. Structures can show the parent of a compound that is named as a salt. Where two headings read alike, the source gives them in different places.

For experiment [1], the system named is Lassa GP-pseudotyped-virus. The experiment can be described thus: microbe, parasite or virus in culture. Format: cell-based, Lassa fever virus. Particulars: for EC50: Human immunodeficiency virus 1, read-out: Activity (EC50 in μM vs. pseudotyped virus) Lassa.
The test system of experiment [2] is Machupo pseudotyped virus. The experiment is described as follows: organism not typed. Format: cell-based. Particulars: read-out: Activity (EC50 in μM vs. pseudotyped virus) Machupo.
Experiment [3] relates to Guanarito pseudotyped virus. The experiment is described as follows: organism not typed. Format: cell-based. Particulars: read-out: Activity (EC50 in μM vs. pseudotyped virus) Guanarito.
The next experiment deals with Junín pseudotyped virus. The experiment is described as follows: organism not typed. Format: cell-based. Conditions: read-out: Activity (EC50 in μM vs. pseudotyped virus) Junín.
For another experiment, the system named is Sabiá pseudotyped virus. The experiment can be described thus: organism not typed. Format: cell-based. Conditions: read-out: Activity (EC50 in μM vs. pseudotyped virus) Sabiá.
The test system of a further experiment is VSVg pseudotyped virus. The experiment can be described thus: microbe, parasite or virus in culture. The class given is cell-based, vesicular stomatitis virus (VSV). Conditions: Vesicular stomatitis virus, read-out: Activity (EC50 in μM vs. pseudotyped virus) VSVg.

For orientation: pEC50 means −log10 of the EC50, conventionally taken in molar units. In general, EC50 refers to the concentration that produces a half-maximal response. For `CCOc1ccc(-n2cnc3cc(NCc4ccc(CC)cc4)cnc32)cc1` [Compound 1, [3-(4-Ethoxy-phenyl)-3H-imidazo[4,5-b]pyridin-6-yl]-(4-ethyl-benzyl)-amine], in experiment [1], the “potency against viral entry mediated by the Lassa envelope glycoprotein” value was “significantly increased potency”. In addition, the negative-log EC50 (pEC50) in experiment [1] (Human immunodeficiency virus 1, HEK-293T, read-out: EC50 against Lassa GP-pseudotyped-virus) was 9.89. The EC50 was < 0.05 µM in experiment [1]; < 0.05 µM in experiment [2]; < 0.05 µM in experiment [3]; < 0.05 µM in the experiment on Junín pseudotyped virus; < 0.05 µM in the experiment with Sabiá pseudotyped virus; 1 to 50 µM in the experiment with VSVg pseudotyped virus.
With `CCOc1ccc(-n2cnc3cc(NCc4ccc(CC)cc4)cnc32)cn1` [Compound 2, [3-(6-Ethoxy-pyridin-3-yl)-3H-imidazo[4,5-b]pyridin-6-yl]-(4-ethyl-benzyl)-amine], the values for the EC50 (in experiment [1]; in the experiment on VSVg pseudotyped virus) were < 0.05 µM and 1 to 50 µM, respectively.
Taken in the same sequence, the figures for `CCOc1ccc(-n2cnc3cc(NCc4ccc(C)cn4)cnc32)cc1` [Compound 3, [3-(4-Ethoxy-phenyl)-3H-imidazo[4,5-b]pyridin-6-yl]-(5-methyl-pyridin-2-ylmethyl)-amine] were 0.05 to 1 µM and > 50 µM.
For `CCOc1ccc(-n2cnc3nc(NCc4ccc(CC)cc4)ccc32)cc1` [Compound 4, [1-(4-Ethoxy-phenyl)-1H-imidazo[4,5-b]pyridin-5-yl]-(4-ethyl-benzyl)-amine], the concentration giving a half-maximal response (EC50) in experiment [1] was < 0.05 µM; in experiment [2], 0.05 to 1 µM; with Sabiá pseudotyped virus it was 0.05 to 1 µM; in the experiment on VSVg pseudotyped virus it was > 50 µM.
For the compound `CCOc1ccc(-n2cnc3cc(N(Cc4ccc(CC)cc4)C(C)=O)cnc32)cc1` [Compound 6, N-[3-(4-Ethoxy-phenyl)-3H-imidazo[4,5-b]pyridin-6-yl]-N-(4-ethyl-benzyl)-acetamide], the half-maximal effective concentration (EC50) in experiment [1] lay within 0.05 to 1 µM; in experiment [2], 1 to 50 µM.
Regarding `CCOc1ccc(-n2cnc3cc(N(Cc4ccc(CC)cc4)C(=O)c4ccccc4)cnc32)cc1` [Compound 7, N-[3-(4-Ethoxy-phenyl)-3H-imidazo[4,5-b]pyridin-6-yl]-N-(4-ethyl-benzyl)-benzamide], the EC50 in experiment [1] and in experiment [2] was 0.05 to 1 µM in each case.
On to `CCOc1ccc(-n2cnc3cc(N(Cc4ccc(CC)cc4)C(=O)CN(C)C)cnc32)cc1` [Compound 8, 2-Dimethylamino-N-[3-(4-ethoxy-phenyl)-3H-imidazo[4,5-b]pyridin-6-yl]-N-(4-ethyl-benzyl)-acetamide hydrochloride], for which the concentration for a half-maximal effect (EC50) in experiment [1] and in experiment [2] was 0.05 to 1 µM each time.
On to `CCOc1ccc(-n2cnc3cc(N(Cc4ccc(CC)cc4)C(=O)CCC(=O)O)cnc32)cc1` [Compound 9, N-[3-(4-Ethoxy-phenyl)-3H-imidazo[4,5-b]pyridin-6-yl]-N-(4-ethyl-benzyl)-succinamic acid], for which the EC50 in experiment [1] and in experiment [2] was 1 to 50 µM throughout.
Take `CCOc1ccc(-n2cnc3cc(N(Cc4ccc(CC)cc4)S(C)(=O)=O)cnc32)cc1` [Compound 10, N-[3-(4-Ethoxy-phenyl)-3H-imidazo[4,5-b]pyridin-6-yl]-N-(4-ethyl-benzyl)-methanesulfonamide]: the EC50 in experiment [1] and in experiment [2] was 1 to 50 µM throughout.
On to `CCOc1ccc(-n2cnc3cc(N(Cc4ccc(CC)cc4)S(=O)(=O)c4ccccc4)cnc32)cc1` [Compound 11, N-[3-(4-Ethoxy-phenyl)-3H-imidazo[4,5-b]pyridin-6-yl]-N-(4-ethyl-benzyl)-benzenesulfonamide], for which the EC50 in experiment [1] and in experiment [2] was 0.05 to 1 µM in each case.
As to `CCOc1ccc(-n2nnc3cc(NCc4ccc(CC)cc4)cnc32)cc1` [Compound 12, [3-(4-Ethoxy-phenyl)-3H-[1,2,3]triazolo[4,5-b]pyridin-6-yl]-(4-ethyl-benzyl)-amine], the EC50 in experiment [1] was < 0.05 µM; in experiment [2], 0.05 to 1 µM; in the experiment with Sabiá pseudotyped virus, 0.05 to 1 µM; in the experiment with VSVg pseudotyped virus, > 50 µM.
